Earlier results, collected in patent publication US10881613B2, “Fumarate polymersomes” (UCL BUSINESS LTD, priority 2016, dated 2021).

Details: in vivo

In the case of `CC(O)CO` (stereo not shown) [Propylene glycol], the “half life (metabolized by the liver)” value is given as 2 h.
